Test results reported in US20080318938A1, “METHODS FOR TREATING ABERRANT CELL PROLIFERATION DISORDERS” (priority 2007, published 2008).

Experiments:
Assay in all cases: Inhibition of cell proliferation (MTT)
Type in all cases: cell-based
U266B1 = details: Homo sapiens; U266B1, Lymphoma; 48 hours
Experimental: (§1) Inhibition of cell proliferation is determined in human tumor cell lines. Innoculation density and doubling times for specific cell lines are listed at World Wide Web URL “dtp.nci.nih.gov/docs/misc/common_files/cell_list.html.”
(§2) • 1. Plate adherent cells the day before starting the experiment in 180 μl growth media (see list hereafter). • 2. Day of experiment, count and plate suspension cells in 180 μl growth media (see list on next page). • 3. Make 10× Compound, vehicle, and chemotherapeutic cocktail • a. Compound (1× to 10×) • i. 10 μM Compound to 100 μM • ii. 3 μM Compound to 30 μM • iii. 1 μM Compound to 10 μM • iv. 0.3 μM Compound to 3 μM • v. 0.1 μM Compound to 1 μM • b. Vehicle • i. PBS, equivalent to the volume used for 10 μM Compound (1× is ˜0.06% PBS) • c. Chemotherapeutic cocktail (1× to 10×): • i. 1 μM Velcade to 10 μM • ii. 100 μM Etoposide to 1 mM • iii. 20 μM Taxol to 200 μM • 4. Add 20 μl of the 10× compound/vehicle/chemotherapeutic cocktail to cells. • 5. Incubate at 37° C., 5% CO2 for 48 hours. • 6. Aspirate media. For suspension cells, spin plate at 1500 RPM for 10 minutes. Use a multichannel pipettor to slowly remove media. • 7. Add 200 μl of Thiazolyl Blue Tetrazolium Bromide (MTT) to each well: 0.863 mg/ml MTT in growth media.
(§3) Proliferation of several cancer cells was inhibited by compound TA1-1B (which is a particular mixture of the isomers represented by TA1-1A), as shown in the following table (Table 1). The value EC50 is the amount of Compound TA1-1B that results in 50% inhibition of proliferation of the indicated cell type.

RPMI-8226 = details: Homo sapiens; RPMI-8226, Leukemia; 48 hours
Experimental: as §1, §2, §3

MCF7 = details: Homo sapiens; MCF7, Breast; 48 hours
Experimental: as §1, §2, §3

786-0 = details: Homo sapiens; 786-0, Renal; 48 hours
Experimental: as §1, §2, §3

NCI-H460 = details: Homo sapiens; NCI-H460, Non Small Cell Lung; 48 hours
Experimental: as §1, §2, §3

RS1184 = details: Homo sapiens; RS1184, Lymphoma; 48 hours
Experimental: as §1, §2, §3

TK-10 = details: Homo sapiens; TK-10, Renal; 48 hours
Experimental: as §1, §2, §3

U937 = details: Homo sapiens, U-937; U937, Lymphoma; 48 hours
Experimental: as §1, §2, §3

RPMI-6666 = details: Homo sapiens; RPMI-6666, Lymphoma; 48 hours
Experimental: as §1, §2, §3

Karpas299 = details: Homo sapiens, KARPAS-299; Karpas299, Lymphoma; 48 hours
Experimental: as §1, §2, §3

U251 = details: Homo sapiens, U-251; U251, CNS; 48 hours
Experimental: as §1, §2, §3

SUDHL4 = details: Homo sapiens, SU-DHL-4; SUDHL4, Lymphoma; 48 hours
Experimental: as §1, §2, §3

MV-4-11 = details: Homo sapiens, MV4-11; MV-4-11, Leukemia; 48 hours
Experimental: as §1, §2, §3

Hs602 = details: Homo sapiens; Hs602, Lymphoma; 48 hours
Experimental: as §1, §2, §3

NK92MI = details: Homo sapiens, Lymphoma, 48 hours
Experimental: as §1, §2, §3

SF-295 = details: Homo sapiens; SF-295, CNS; 48 hours
Experimental: as §1, §2, §3

Reh = details: Homo sapiens, Leukemia, 48 hours
Experimental: as §1, §2, §3

A3 = details: Homo sapiens; A3, Leukemia; 48 hours
Experimental: as §1, §2, §3

J45-01 = details: Homo sapiens; J45-01, Leukemia; 48 hours
Experimental: as §1, §2, §3

MOLT-4 = details: Homo sapiens; MOLT-4, Leukemia; 48 hours
Experimental: as §1, §2, §3

BT-549 = details: Homo sapiens; BT-549, Breast; 48 hours
Experimental: as §1, §2, §3

Ramos = details: Homo sapiens, Lymphoma, 48 hours
Experimental: as §1, §2, §3

HL-60(TB) = details: Homo sapiens, Leukemia, 48 hours
Experimental: as §1, §2, §3

TF-1 = details: Homo sapiens; TF-1, Leukemia; 48 hours
Experimental: as §1, §2, §3

MDA-MB-435 = details: Homo sapiens; MDA-MB-435, Breast; 48 hours
Experimental: as §1, §2, §3

NCI/ADR-RES = details: Homo sapiens, Breast, 48 hours
Experimental: as §1, §2, §3

RS4-11 = details: Homo sapiens; RS4-11, Leukemia; 48 hours
Experimental: as §1, §2, §3

M14 = details: Homo sapiens; M14, Melanoma; 48 hours
Experimental: as §1, §2, §3

EKVX = details: Homo sapiens, Non Small Cell Lung, 48 hours
Experimental: as §1, §2, §3

HT = details: Homo sapiens, Lymphoma, 48 hours
Experimental: as §1, §2, §3

Raji = details: Homo sapiens, Lymphoma, 48 hours
Experimental: as §1, §2, §3

## CN1CCC[C@H]1CCNC(=O)c1cn2c3c(c(N4CCC(c5cnccn5)C4)c(F)cc3c1=O)Oc1cc3ccccc3cc1-2 (stereo partly shown) [TA1-1B]
U266B1
  EC50: 1.62 µM
RPMI-8226
  EC50: 1.37 µM
MCF7
  EC50: 3.46 µM
786-0
  EC50: 4.34 µM
NCI-H460
  EC50: 4.01 µM
RS1184
  EC50: 3.25 µM
TK-10
  EC50: 3.33 µM
U937
  EC50: 4.54 µM
RPMI-6666
  EC50: 1.59 µM
Karpas299
  EC50: 3.92 µM
U251
  EC50: 2.68 µM
SUDHL4
  EC50: 1.34 µM
MV-4-11
  EC50: 5.81 µM
Hs602
  EC50: 1.28 µM
NK92MI
  EC50: 1.3 µM
SF-295
  EC50: 4.27 µM
Reh
  EC50: 1.32 µM
A3
  EC50: 3.63 µM
J45-01
  EC50: 1.89 µM
MOLT-4
  EC50: 1.21 µM
BT-549
  EC50: 1.8 µM
Ramos
  EC50: 1.33 µM
HL-60(TB)
  EC50: 1.65 µM
TF-1
  EC50: 5.46 µM
MDA-MB-435
  EC50: 3.63 µM
NCI/ADR-RES
  EC50: 1.62 µM
RS4-11
  EC50: 0.55 µM
M14
  EC50: 4.98 µM
EKVX
  EC50: 5.67 µM
HT
  EC50: 2.44 µM
Raji
  EC50: 1.88 µM
